Source: patent publication US20140221361A1, “C-19 MODIFIED TRITERPENOIDS WITH HIV MATURATION INHIBITORY ACTIVITY” (priority 2013, published 2014)

Each molecule was assayed on recombinant NL4-3 virus (Renilla luciferase in nef, Gag P373S) (assay: HIV cell culture assay (luciferase reporter, MT-2 cells)). Conditions: Renilla, NL43, MT-2 cells infected for 4-5 days with NLRluc recombinants; luciferase activity; serial dilutions of inhibitor.
Type: cell-based, HIV-1
How it was run: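 MT-2 cells infected with recombinant NL4-3 carrying Renilla luciferase in place of part of nef and Gag P373S, virus made by 293T transfection. Infection ran 4-5 days with serial inhibitor dilutions. Antiviral activity read as luciferase activity (Dual Luciferase reagents mixed with lysis buffer).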

Compound | EC50 [nM]
CC1([C@@H]2CC[C@]3(N)CC[C@]4(C)[C@H](CC[C@@H]5[C@@]6(C)CC=C(c7ccc(C(=O)O)cc7)C(C)(C)[C@@H]6CC[C@]54C)[C@@H]23)CC1 [Example B49, 4-((1R,3aS,5aR,5bR,7aR,11aS,11bR,13aR,13bR)-3a-amino-5a,5b,8,8,11a-pentamethyl-1-(1-methylcyclopropyl)-2,3,3a,4,5,5a,5b,6,7,7a,8,11,11a,11b,12,13,13a,13b-octadecahydro-1H-cyclopenta[a]chrysen-9-yl)benzoic acid] | 0.985
C=C(CNCCC(=O)O)[C@@H]1CC[C@]2(C(=O)O)CC[C@]3(C)[C@H](CC[C@@H]4[C@@]5(C)CC=C(c6ccc(C(=O)O)cc6)C(C)(C)[C@@H]5CC[C@]43C)[C@@H]12 [Example 6, (1R,3aS,5aR,5bR,7aR,11aS,11bR,13aR,13bS)-1-(3-(2-carboxyethylamino)prop-1-en-2-yl)-9-(4-carboxyphenyl)-5a,5b,8,8,11a-pentamethyl-2,3,3a,4,5,5a,5b,6,7,7a,8,11,11a,11b,12,13,13a,13b-octadecahydro-1H-cyclopenta[a]chrysene-3a-carboxylic acid] | 4000
CC1([C@@H]2CC[C@]3(NCCN4CCS(=O)(=O)CC4)CC[C@]4(C)[C@H](CC[C@@H]5[C@@]6(C)CC=C(c7ccc(C(=O)O)cc7)C(C)(C)[C@@H]6CC[C@]54C)[C@@H]23)CC1 [Example B52, 4-((1R,3aS,5aR,5bR,7aR,11aS,11bR,13aR,13bR)-3a-((2-(1,1-dioxidothiomorpholino)ethyl)amino)-5a,5b,8,8,11a-pentamethyl-1-(1-methylcyclopropyl)-2,3,3a,4,5,5a,5b,6,7,7a,8,11,11a,11b,12,13,13a,13b-octadecahydro-1H-cyclopenta[a]chrysen-9-yl)benzoic acid] | 0.924
C=C(CO)[C@@H]1CC[C@]2(N)CC[C@]3(C)[C@H](CC[C@@H]4[C@@]5(C)CC=C(c6ccc(C(=O)O)c(F)c6)C(C)(C)[C@@H]5CC[C@]43C)[C@@H]12 [Example A2] | 10
CC(=O)NC(C)[C@@H]1CC[C@]2(NCCN3CCS(=O)(=O)CC3)CC[C@]3(C)[C@H](CC[C@@H]4[C@@]5(C)CC=C(c6ccc(C(=O)O)cc6)C(C)(C)[C@@H]5CC[C@]43C)[C@@H]12 (stereo partly drawn) [Example B21, 4-((1R,3aS,5aR,5bR,7aR,11aS,11bR,13aR,13bS)-1-(1-acetamidoethyl)-3a-((2-(1,1-dioxidothiomorpholino)ethyl)amino)-5a,5b,8,8,11a-pentamethyl-2,3,3a,4,5,5a,5b,6,7,7a,8,11,11a,11b,12,13,13a,13b-octadecahydro-1H-cyclopenta[a]chrysen-9-yl)benzoic acid] | 8.18
CC(C)(C)OC(=O)N[C@@H]1CC[C@]2(C(=O)O)CC[C@]3(C)[C@H](CC[C@@H]4[C@@]5(C)CC=C(C6=CCC(C(=O)O)CC6)C(C)(C)[C@@H]5CC[C@]43C)[C@@H]12 (stereo partly drawn) [Example A8, (1R,3aR,5aR,5bR,7aR,11aS,11bR,13aR,13bR)-1-((tert-butoxycarbonyl)amino)-9-(4-carboxycyclohex-1-en-1-yl)-5a,5b,8,8,11a-pentamethyl-2,3,3a,4,5,5a,5b,6,7,7a,8,11,11a,11b,12,13,13a,13b-octadecahydro-1H-cyclopenta[a]chrysene-3a-carboxylic acid] | 6.56
CC1([C@@H]2CC[C@]3(NCCN4CCN(S(C)(=O)=O)CC4)CC[C@]4(C)[C@H](CC[C@@H]5[C@@]6(C)CC=C(c7ccc(C(=O)O)cc7)C(C)(C)[C@@H]6CC[C@]54C)[C@@H]23)CC1 [Example B56, 4-((1R,3aS,5aR,5bR,7aR,11aS,11bR,13aR,13bR)-5a,5b,8,8,11a-pentamethyl-1-(1-methylcyclopropyl)-3a-(2-(4-(methylsulfonyl)piperazin-1-yl)ethylamino)-2,3,3a,4,5,5a,5b,6,7,7a,8,11,11a,11b,12,13,13a,13b-octadecahydro-1H-cyclopenta[a]chrysen-9-yl)benzoic acid] | 2.51
